Patent publication US12539292B2, “BRM targeting compounds and associated methods of use” (Arvinas Operations, Inc., priority 2018, dated 2026)
Where two headings read alike, the source gives them in different places.

Biological target: T1, BRM (Homo sapiens, UniProt P51531)
T1 construct: In-Cell Western Screen of BRM Degradation in SW1573 Cells; endogenous in cells; host or cells: SW1573
Assay: In-cell Western screen of BRM degradation in SW1573 cells (Dmax and DC50)
Format: cell-based
Procedure, shortened: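 SW1573, overnight cpd exposure (18-20 h), 0.1% DMSO final. PFA fix, 0.5% Triton permeabilization, block; IR secondaries at 800/680 nm. Odyssey read → Dmax, DC50.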

[1] = BRM degradation, SW1573 cells, read-out: DC50
[2] = BRM degradation, SW1573 cells, read-out: Dmax (% degraded)
[3] = SW1573, % degraded, when tested at the top concentration of between 0.3 and 10 μM, read-out: BRM Dmax (%)
[4] = degradation of BRM, read-out: BRM DC50
[5] = BRM degradation, read-out: BRM DC50
[6] = BRM degradation, SW1573 cells, when tested at the top concentration of between 0.3 and 10 μM, read-out: Dmax (%) (% degraded)

T1 sequence (P51531 whole entry): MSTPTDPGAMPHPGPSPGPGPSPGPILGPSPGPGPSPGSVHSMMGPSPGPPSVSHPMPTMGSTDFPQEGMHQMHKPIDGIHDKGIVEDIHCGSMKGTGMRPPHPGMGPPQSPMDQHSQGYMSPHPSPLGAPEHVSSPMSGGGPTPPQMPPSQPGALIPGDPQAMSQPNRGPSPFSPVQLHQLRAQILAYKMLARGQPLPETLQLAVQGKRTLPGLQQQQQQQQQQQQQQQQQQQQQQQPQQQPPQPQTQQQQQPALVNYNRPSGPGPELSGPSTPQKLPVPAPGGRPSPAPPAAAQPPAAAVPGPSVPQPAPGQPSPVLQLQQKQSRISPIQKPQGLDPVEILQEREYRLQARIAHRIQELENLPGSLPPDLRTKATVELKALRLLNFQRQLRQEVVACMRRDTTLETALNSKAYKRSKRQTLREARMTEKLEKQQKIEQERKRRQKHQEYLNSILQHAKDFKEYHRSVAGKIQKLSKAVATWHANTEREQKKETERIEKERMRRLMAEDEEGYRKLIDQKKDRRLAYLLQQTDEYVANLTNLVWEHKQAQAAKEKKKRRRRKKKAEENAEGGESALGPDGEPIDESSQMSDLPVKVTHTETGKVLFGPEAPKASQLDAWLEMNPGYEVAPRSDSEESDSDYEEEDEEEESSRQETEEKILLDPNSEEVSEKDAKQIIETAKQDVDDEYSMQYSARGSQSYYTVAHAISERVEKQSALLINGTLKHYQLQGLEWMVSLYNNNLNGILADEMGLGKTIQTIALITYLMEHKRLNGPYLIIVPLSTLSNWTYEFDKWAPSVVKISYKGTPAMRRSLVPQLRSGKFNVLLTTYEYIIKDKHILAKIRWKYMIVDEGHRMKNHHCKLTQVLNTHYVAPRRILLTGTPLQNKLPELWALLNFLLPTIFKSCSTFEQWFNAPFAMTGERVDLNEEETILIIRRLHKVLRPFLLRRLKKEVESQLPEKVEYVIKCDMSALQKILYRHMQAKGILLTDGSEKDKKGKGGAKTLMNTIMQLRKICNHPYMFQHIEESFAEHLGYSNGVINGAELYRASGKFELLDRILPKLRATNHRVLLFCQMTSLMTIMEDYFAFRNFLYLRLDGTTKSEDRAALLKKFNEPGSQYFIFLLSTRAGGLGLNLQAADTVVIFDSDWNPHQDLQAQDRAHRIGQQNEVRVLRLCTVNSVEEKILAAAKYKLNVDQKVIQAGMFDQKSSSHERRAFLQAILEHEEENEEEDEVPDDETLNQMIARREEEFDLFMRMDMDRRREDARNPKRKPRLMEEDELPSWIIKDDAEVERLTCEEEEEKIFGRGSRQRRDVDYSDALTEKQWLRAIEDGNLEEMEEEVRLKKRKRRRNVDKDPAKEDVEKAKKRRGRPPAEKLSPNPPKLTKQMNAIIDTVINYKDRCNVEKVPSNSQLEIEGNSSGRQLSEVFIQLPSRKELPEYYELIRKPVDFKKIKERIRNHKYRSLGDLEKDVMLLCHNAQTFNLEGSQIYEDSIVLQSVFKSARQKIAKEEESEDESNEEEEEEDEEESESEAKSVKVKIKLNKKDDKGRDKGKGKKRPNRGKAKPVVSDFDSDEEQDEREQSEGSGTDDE

| Compound | DC50 [1] [nM] | Dmax [3] [%] | further results |
| --- | --- | --- | --- |
| CC(C)[C@@H](C(=O)N1C[C@H](O)C[C@H]1C(=O)N[C@@H](C)c1ccc(-c2scnc2N)cc1)c1cc(N2CCC(CN3CCC(O[C@H]4C[C@H](Oc5cc(N6C7CCC6CN(c6cc(-c8ccccc8O)nnc6N)C7)ccn5)C4)CC3)CC2)no1 [compound 630, (2S,4R)-1-((2R)-2-(3-(4-((4-((1r,3r)-3-((4-(3-(3-amino-6-(2-hydroxyphenyl)pyridazin-4-yl)-3,8-diazabicyclo[3.2.1]octan-8-yl)pyridin-2-yl)oxy)cyclobutoxy)piperidin-1-yl)methyl)piperidin-1-yl)isoxazol-5-yl)-3-methylbutanoyl)-N-((S)-1-(4-(4-aminothiazol-5-yl)phenyl)ethyl)-4-hydroxypyrrolidine-2-carboxamide] | < 2.5 | – | Dmax [2]: > 75% |
| Cc1ncsc1-c1ccc([C@H](C)NC(=O)[C@@H]2C[C@@H](O)CN2C(=O)[C@@H](c2cc(OCCC3CCN([C@H]4C[C@H](CN5CCOC6(CCN(c7cc(-c8ccccc8O)nnc7N)CC6)C5)C4)CC3)no2)C(C)C)cc1 [compound 445, (2S,4R)-1-((R)-2-(3-(2-(1-((1r,3R)-3-((9-(3-amino-6-(2-hydroxyphenyl)pyridazin-4-yl)-1-oxa-4,9-diazaspiro[5.5]undecan-4-yl)methyl)cyclobutyl)piperidin-4-yl)ethoxy)isoxazol-5-yl)-3-methylbutanoyl)-4-hydroxy-N-((S)-1-(4-(4-methylthiazol-5-yl)phenyl)ethyl)pyrrolidine-2-carboxamide] | – | > 75 | DC50 [4]: < 2.5 nM |
| Cc1ncsc1-c1ccc([C@H](C)NC(=O)[C@@H]2C[C@@H](O)CN2C(=O)[C@H](c2cc(N3CC(CN4CC(COc5cc(N6C7CCC6CN(c6cc(-c8ccccc8O)nnc6N)C7)ccn5)C4)C3)no2)C(C)C)cc1 [compound 518, (2S,4R)-1-((2S)-2-(3-(3-((3-(((4-(3-(3-amino-6-(2-hydroxyphenyl)pyridazin-4-yl)-3,8-diazabicyclo[3.2.1]octan-8-yl)pyridin-2-yl)oxy)methyl)azetidin-1-yl)methyl)azetidin-1-yl)isoxazol-5-yl)-3-methylbutanoyl)-4-hydroxy-N-((S)-1-(4-(4-methylthiazol-5-yl)phenyl)ethyl)pyrrolidine-2-carboxamide] | – | – | DC50 [5]: > 30 nM |
| Cc1ncsc1-c1ccc([C@H](C)NC(=O)[C@@H]2C[C@@H](O)CN2C(=O)[C@H](c2cc(N3CCC4(CCCN(C[C@H]5C[C@H](Oc6cc(N7C8CCC7CN(c7cc(-c9ccccc9O)nnc7N)C8)ccn6)C5)C4)CC3)no2)C(C)C)cc1 [compound 659, (2S,4R)-1-((2S)-2-(3-(2-(((1r,3S)-3-((4-(3-(3-amino-6-(2-hydroxyphenyl)pyridazin-4-yl)-3,8-diazabicyclo[3.2.1]octan-8-yl)pyridin-2-yl)oxy)cyclobutyl)methyl)-2,9-diazaspiro[5.5]undecan-9-yl)isoxazol-5-yl)-3-methylbutanoyl)-4-hydroxy-N-((S)-1-(4-(4-methylthiazol-5-yl)phenyl)ethyl)pyrrolidine-2-carboxamide] | > 30 | – | – |
| Cc1ncsc1-c1ccc([C@H](C)NC(=O)[C@@H]2C[C@@H](O)CN2C(=O)[C@@H](c2cc(OCCN3CCC(O[C@H]4C[C@H](Oc5cnnc(N6C7CCC6CN(c6cc(-c8ccccc8O)nnc6N)C7)c5)C4)CC3)no2)C(C)C)cc1 [compound 471, (2S,4R)-1-((2R)-2-(3-(2-(4-((1r,3R)-3-((6-(3-(3-amino-6-(2-hydroxyphenyl)pyridazin-4-yl)-3,8-diazabicyclo[3.2.1]octan-8-yl)pyridazin-4-yl)oxy)cyclobutoxy)piperidin-1-yl)ethoxy)isoxazol-5-yl)-3-methylbutanoyl)-4-hydroxy-N-((S)-1-(4-(4-methylthiazol-5-yl)phenyl)ethyl)pyrrolidine-2-carboxamide] | – | > 75 | DC50 (target protein degradation, read-out: BRM DC50): < 2.5 nM |
| Cc1ncsc1-c1ccc([C@H](CCC#N)NC(=O)[C@@H]2C[C@@H](O)CN2C(=O)[C@@H](c2cc(OCCN3CCC(O[C@H]4C[C@H](Oc5cc(N6C7CCC6CN(c6cc(-c8ccccc8O)nnc6N)C7)ccn5)C4)CC3)no2)C(C)C)cc1 [compound 533, (2S,4R)-1-((2R)-2-(3-(2-(4-((1r,3R)-3-((4-(3-(3-amino-6-(2-hydroxyphenyl)pyridazin-4-yl)-3,8-diazabicyclo[3.2.1]octan-8-yl)pyridin-2-yl)oxy)cyclobutoxy)piperidin-1-yl)ethoxy)isoxazol-5-yl)-3-methylbutanoyl)-N-((S)-3-cyano-1-(4-(4-methylthiazol-5-yl)phenyl)propyl)-4-hydroxypyrrolidine-2-carboxamide] | – | > 75 | DC50 [5]: < 2.5 nM |
| Cc1ncsc1-c1ccc(CNC(=O)[C@@H]2C[C@@H](O)CN2C(=O)[C@@H](NC(=O)COCCOCCOCCOCCOCCOCCOCCn2cc(-c3cc(-c4ccccc4O)nnc3N)cn2)C(C)(C)C)cc1 [compound 5, (2S,4R)-1-((S)-26-(4-(3-amino-6-(2-hydroxyphenyl)pyridazin-4-yl)-1H-pyrazol-1-yl)-2-(tert-butyl)-4-oxo-6,9,12,15,18,21,24-heptaoxa-3-azahexacosanoyl)-4-hydroxy-N-(4-(4-methylthiazol-5-yl)benzyl)pyrrolidine-2-carboxamide] | > 30 | – | Dmax [6]: > 75% |
| COCc1ncsc1-c1ccc([C@H](C)NC(=O)[C@@H]2C[C@@H](O)CN2C(=O)[C@@H](c2cc(OCCN3CCC(O[C@H]4C[C@H](Oc5cc(N6C7CCC6CN(c6cc(-c8ccccc8O)nnc6N)C7)ccn5)C4)CC3)no2)C(C)C)cc1 [compound 185, (2S,4R)-1-((2R)-2-(3-(2-(4-((1r,3R)-3-((4-(3-(3-amino-6-(2-hydroxyphenyl)pyridazin-4-yl)-3,8-diazabicyclo[3.2.1]octan-8-yl)pyridin-2-yl)oxy)cyclobutoxy)piperidin-1-yl)ethoxy)isoxazol-5-yl)-3-methylbutanoyl)-4-hydroxy-N-((S)-1-(4-(4-(methoxymethyl)thiazol-5-yl)phenyl)ethyl)pyrrolidine-2-carboxamide] | < 2.5 | – | Dmax (BRM degradation, SW1573 cells, tested at the top concentration of between 0.3 and 10 μM, read-out: Dmax (%) (% degraded)): > 75% |
| Cc1ncsc1-c1ccc([C@H](C)NC(=O)[C@@H]2C[C@@H](O)CN2C(=O)[C@@H](c2cc(OCCN3CCN(CCOCCn4cc(-c5cc(-c6ccccc6O)nnc5N)cn4)CC3)no2)C(C)C)cc1 [compound 62, (2S,4R)-1-((R)-2-(3-(2-(4-(2-(2-(4-(3-amino-6-(2-hydroxyphenyl)pyridazin-4-yl)-1H-pyrazol-1-yl)ethoxy)ethyl)piperazin-1-yl)ethoxy)isoxazol-5-yl)-3-methylbutanoyl)-4-hydroxy-N-((S)-1-(4-(4-methylthiazol-5-yl)phenyl)ethyl)pyrrolidine-2-carboxamide] | 2.5 to 10 | – | Dmax [6]: > 75% |
| CC(C)[C@@H](C(=O)N1C[C@H](O)C[C@H]1C(=O)N[C@@H](C)c1ccc(-c2scnc2N)cc1)c1cc(OCCN2CCC(O[C@H]3C[C@H](Oc4cc(N5C6CCC5CN(c5cc(-c7ccccc7O)nnc5N)C6)ccn4)C3)CC2)no1 [compound 416, (2S,4R)-1-((2R)-2-(3-(2-(4-((1r,3R)-3-((4-(3-(3-amino-6-(2-hydroxyphenyl)pyridazin-4-yl)-3,8-diazabicyclo[3.2.1]octan-8-yl)pyridin-2-yl)oxy)cyclobutoxy)piperidin-1-yl)ethoxy)isoxazol-5-yl)-3-methylbutanoyl)-N-((S)-1-(4-(4-aminothiazol-5-yl)phenyl)ethyl)-4-hydroxypyrrolidine-2-carboxamide] | – | > 75 | DC50 [4]: < 2.5 nM |
| Cc1ncsc1-c1ccc(CNC(=O)[C@@H]2C[C@@H](O)CN2C(=O)[C@H](C(C)C)N2Cc3ccccc3C2=O)c(OCCOCCOCCOCCOCCOCCn2cc(-c3cc(-c4ccccc4O)nnc3N)cn2)c1 [compound 20, (2S,4R)-N-(2-((17-(4-(3-amino-6-(2-hydroxyphenyl)pyridazin-4-yl)-1H-pyrazol-1-yl)-3,6,9,12,15-pentaoxaheptadecyl)oxy)-4-(4-methylthiazol-5-yl)benzyl)-4-hydroxy-1-((S)-3-methyl-2-(1-oxoisoindolin-2-yl)butanoyl)pyrrolidine-2-carboxamide] | > 30 | – | Dmax [6]: 50 to 75% |
| Cc1ncsc1-c1ccc([C@H](C)NC(=O)[C@@H]2C[C@@H](O)CN2C(=O)[C@@H](c2cc(N3CCC(CN4CCC(O[C@H]5C[C@H](N6CCC(C(C)n7cc(-c8cc(-c9ccccc9O)nnc8N)cn7)CC6)C5)CC4)CC3)no2)C(C)C)cc1 (stereo partly drawn) [compound 648, (2S,4R)-1-((2R)-2-(3-(4-((4-((1r,3r)-3-(4-(1-(4-(3-amino-6-(2-hydroxyphenyl)pyridazin-4-yl)-1H-pyrazol-1-yl)ethyl)piperidin-1-yl)cyclobutoxy)piperidin-1-yl)methyl)piperidin-1-yl)isoxazol-5-yl)-3-methylbutanoyl)-4-hydroxy-N-((S)-1-(4-(4-methylthiazol-5-yl)phenyl)ethyl)pyrrolidine-2-carboxamide] | < 2.5 | – | Dmax [2]: > 75% |
| Cc1ncsc1-c1ccc([C@H](CCO)NC(=O)[C@@H]2C[C@@H](O)CN2C(=O)[C@@H](c2cc(N3CCC(CN4CCC(O[C@H]5C[C@H](Oc6cc(N7C8CCC7CN(c7cc(-c9ccccc9O)nnc7N)C8)ccn6)C5)CC4)CC3)no2)C(C)C)cc1 [compound 661, (2S,4R)-1-((2R)-2-(3-(4-((4-((1r,3r)-3-((4-(3-(3-amino-6-(2-hydroxyphenyl)pyridazin-4-yl)-3,8-diazabicyclo[3.2.1]octan-8-yl)pyridin-2-yl)oxy)cyclobutoxy)piperidin-1-yl)methyl)piperidin-1-yl)isoxazol-5-yl)-3-methylbutanoyl)-4-hydroxy-N-((S)-3-hydroxy-1-(4-(4-methylthiazol-5-yl)phenyl)propyl)pyrrolidine-2-carboxamide] | < 2.5 | – | Dmax [2]: > 75% |
